Columns and labels:
CDK2/A = target: T1, CDK2/A (Homo sapiens, UniProt P24941); assay: protein kinase catalytic activity assay, CDK2/cyclin A; format: biochemical; conditions: read-out: IC50 towards CDK2/A
T1 construct: made in house

CDK5/p25 = target: T2, CDK5/p25 (Homo sapiens, UniProt Q00535); assay: protein kinase catalytic activity assay, CDK5/p25; format: biochemical; conditions: read-out: IC50 towards CDK5/p25
T2 construct: made in house

CDK9/T = target: T3, CDK9/T (Homo sapiens, UniProt P50750); assay: protein kinase catalytic activity assay, CDK9/cyclin T; format: biochemical; conditions: read-out: IC50 towards CDK9/T
T3 construct: made in house

CK1 = assay: protein kinase catalytic activity assay, CK1; format: biochemical; conditions: read-out: IC50 towards CK1
ABCB4-WT [1] = target: T4, ABCB4-WT (Homo sapiens, UniProt P21439); assay: ABCB4-mediated phosphatidylcholine secretion, HEK cells expressing ABCB4-WT; format: cell-based; conditions: from dose-response curves of Fig. 4C, read-out: IC50 (µM) (min-max) on the PC secretion activity of ABCB4-WT
T4 construct: wild type (WT) ABCB4, isoform A (NM_000443.3), into pcDNA3 vector; expressed in transfected cells; host or cells: HEK-293
Protocol: (§1) Cyclosporin A (CsA) was from Santa Cruz Biotechnologies (Dallas, TX). […] Each compound was solubilized in dimethylsulfoxide (DMSO) as 1000X concentrated stock solutions in order to treat cells with 5 µM to 100 µM final concentrations, using DMSO as control vehicle at the same dilution (0.1% DMSO for all conditions). The cells were treated 24 hours post-transfection with these drugs during 16 hours, except for the viability assays for which cells were treated during three days. After drug treatment, cells were used for immunoanalyses, cell viability assays or PC secretion assays.
(§2) HEK cells were seeded in 0.01% poly-L-lysine (Sigma) pre-coated 6-well plates of 10 cm² area per well (1.3 × 10^6 cells per well). After transient transfection of the empty vector (control), plasmids encoding ABCB4-WT or its variants, cells were incubated during 24 hours at 37 °C in serum-free medium supplemented with 0.5 mM sodium taurocholate (Sigma) and 0.02% fatty acid–free bovine serum albumin (Sigma). Then, the secreted PC was quantified from the collected media using a fluoro-enzymatic assay previously described. Each condition was analysed in triplicate, after background subtraction, and results were normalized to the expression levels of ABCB4 determined by immunoblots of the corresponding cell lysates.

ABCB4-I490T = target: T5, ABCB4-I490T (Homo sapiens, UniProt P21439, I490T); assay: Canalicular localisation of ABCB4-I490T by indirect immunofluorescence in HepG2 cells; format: cell-based; conditions: 25 µM
T5 construct: wild type (WT) ABCB4, isoform A (NM_000443.3), into pcDNA3 vector; expressed in transfected cells; host or cells: HepG2

ABCB4-L556R = target: T6, ABCB4-L556R (Homo sapiens, UniProt P21439, L556R); assay: Canalicular localisation of ABCB4-L556R by indirect immunofluorescence in HepG2 cells; format: cell-based; conditions: 25 µM
T6 construct: wild type (WT) ABCB4, isoform A (NM_000443.3), into pcDNA3 vector; expressed in transfected cells; host or cells: HepG2

ABCB4-I541F [2] = target: T7, ABCB4-I541F (Homo sapiens, UniProt P21439, I541F); assay: Maturation of ABCB4-I541F by immunoblot in HEK cells; format: cell-based; design: wild type (WT) ABCB4, isoform A (NM_000443.3), into pcDNA3 vector; expressed in transfected cells; host or cells: HEK-293 (immunoblot, PC secretion); conditions: 100 µM, 16 hours
Protocol: For transient transfection of HEK cells, they were seeded at subconfluent levels in the adequate tissue culture wells at least six hours before transfection. Turbofect (Thermo Fisher scientific) was used at a ratio of reagent:DNA of 2:1 according to manufacturer’s instructions. For transient transfection of HepG2 cells, subconfluent cultures were seeded in the adequate culture wells 24 hours before transfection. Lipofectamine 3000 (Thermo Fisher Scientific) was used at a ratio of reagent:DNA of 1.5:1 according to manufacturer’s instructions. Cell treatments and processing for further analyses were performed at least 16 hours post-transfection.
as §1
Western blots and indirect immunofluorescence were performed as previously described[9],[50]. […] Signals were detected with ECL prime western blotting detection reagent (GE Healthcare, Velizy-Villacoublay, France) and quantified in the linear range of detection using ImageJ 1.50i software (U.S. National Institutes of Health, Bethesda, MD).

ABCB4-I541F [3] = target: T7, ABCB4-I541F; assay: ABCB4-mediated phosphatidylcholine secretion, HEK cells expressing ABCB4-I541F; format: cell-based; design: wild type (WT) ABCB4, isoform A (NM_000443.3), into pcDNA3 vector; expressed in transfected cells; host or cells: HEK-293 (immunoblot, PC secretion); conditions: 25 µM, vehicle 7.1 ± 0.8%
Protocol: as §1, §2

[4] = Cell viability, MTT assay; conditions: human
Protocol: as §1
(§3) Cell viability was assessed by the conversion of MTT (3-[4,5-dimethylthiazol-2-yl]-2,5 diphenyl tetrazolium bromide) into formazan crystals by living cells, as described. In brief, HEK cells were seeded in 96-well plates in triplicate for each tested condition, including controls (no cells, no treatment, treatment with vehicle). […] These conditions were optimized in order to maintain the absorbance at 540 nm of the blanks below 0.1 OD unit (negative controls) and the absorbance at 540 nm for untreated cells between 1.0 and 1.3 OD units (positive controls). Then culture media were gently washed out, cells were lysed in 100 µL of pure DMSO and absorbance at 540 nm was measured using a multiplate cytofluorimeter SpectraFluor from Tecan (Männedorf, Switzerland). Cell viability was calculated for each triplicate after background subtraction and expressed as percentage of the mean for cells treated with vehicle only.

HEK cells = assay: Cell viability, MTT assay; conditions: three days
Protocol: as §1, §3

ABCB4-WT [5] = target: T4, ABCB4-WT; design: method as in PMID 24806754; conditions: cited from earlier work
ABCB4-I541F [6] = target: T7, ABCB4-I541F; design: wild type (WT) ABCB4, isoform A (NM_000443.3), into pcDNA3 vector; expressed in transfected cells; host or cells: HEK-293 (immunoblot, PC secretion); HepG2 (immunofluorescence); method as in PMID 22184139, PMID 19185004; conditions: cited from earlier work

T2 sequence (Q00535 whole entry, species assumed): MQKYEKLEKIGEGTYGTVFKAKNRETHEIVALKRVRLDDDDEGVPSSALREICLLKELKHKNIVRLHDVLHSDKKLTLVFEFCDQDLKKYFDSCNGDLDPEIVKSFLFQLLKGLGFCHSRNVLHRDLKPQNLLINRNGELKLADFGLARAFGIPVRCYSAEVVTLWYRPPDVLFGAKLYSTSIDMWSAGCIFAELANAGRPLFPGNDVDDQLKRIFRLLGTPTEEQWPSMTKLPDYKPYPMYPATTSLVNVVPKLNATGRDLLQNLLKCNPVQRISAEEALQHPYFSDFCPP
T2 sequence (Q15078 99-307 partner limits assumed, species assumed): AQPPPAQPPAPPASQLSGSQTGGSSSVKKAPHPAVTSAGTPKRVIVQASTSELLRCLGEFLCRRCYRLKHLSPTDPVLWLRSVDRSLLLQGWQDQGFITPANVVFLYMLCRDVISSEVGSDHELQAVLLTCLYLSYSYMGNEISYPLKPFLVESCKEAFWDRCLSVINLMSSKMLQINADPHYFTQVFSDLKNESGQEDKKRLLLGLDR
T7 sequence (P21439 1-1279 isoform P21439-2 I541F): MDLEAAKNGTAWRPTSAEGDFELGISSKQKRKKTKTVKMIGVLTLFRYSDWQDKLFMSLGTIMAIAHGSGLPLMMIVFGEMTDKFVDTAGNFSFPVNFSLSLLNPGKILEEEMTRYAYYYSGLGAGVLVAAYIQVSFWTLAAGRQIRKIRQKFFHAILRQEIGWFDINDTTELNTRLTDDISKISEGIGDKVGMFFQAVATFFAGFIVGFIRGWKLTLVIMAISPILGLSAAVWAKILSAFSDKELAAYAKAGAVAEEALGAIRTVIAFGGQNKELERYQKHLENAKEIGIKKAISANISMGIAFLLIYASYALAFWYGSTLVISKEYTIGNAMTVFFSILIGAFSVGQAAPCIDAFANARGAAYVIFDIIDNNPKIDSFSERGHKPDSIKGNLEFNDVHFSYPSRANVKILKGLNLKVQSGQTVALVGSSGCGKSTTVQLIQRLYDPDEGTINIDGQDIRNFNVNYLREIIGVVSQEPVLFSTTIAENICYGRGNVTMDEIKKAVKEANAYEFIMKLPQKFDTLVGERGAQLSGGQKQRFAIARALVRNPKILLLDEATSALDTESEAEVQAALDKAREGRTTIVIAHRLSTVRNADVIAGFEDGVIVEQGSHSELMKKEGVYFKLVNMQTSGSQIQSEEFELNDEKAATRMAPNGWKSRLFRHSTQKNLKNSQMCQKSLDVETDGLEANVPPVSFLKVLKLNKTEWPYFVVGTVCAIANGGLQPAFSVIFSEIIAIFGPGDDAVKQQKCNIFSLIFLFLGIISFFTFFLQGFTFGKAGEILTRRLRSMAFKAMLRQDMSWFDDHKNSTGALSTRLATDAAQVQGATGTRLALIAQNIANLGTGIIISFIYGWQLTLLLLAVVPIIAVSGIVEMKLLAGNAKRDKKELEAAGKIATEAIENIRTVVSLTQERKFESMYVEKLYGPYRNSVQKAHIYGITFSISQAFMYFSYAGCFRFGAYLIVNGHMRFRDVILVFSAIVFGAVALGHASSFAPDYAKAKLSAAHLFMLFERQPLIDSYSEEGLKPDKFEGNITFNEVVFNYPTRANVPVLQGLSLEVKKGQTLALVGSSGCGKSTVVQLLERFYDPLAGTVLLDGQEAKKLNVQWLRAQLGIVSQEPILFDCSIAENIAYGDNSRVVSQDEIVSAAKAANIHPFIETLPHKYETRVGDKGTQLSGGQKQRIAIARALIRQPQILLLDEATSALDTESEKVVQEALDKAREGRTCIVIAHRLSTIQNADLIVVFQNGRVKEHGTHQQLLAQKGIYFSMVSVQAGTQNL
T3 sequence (P50750 whole entry, species assumed): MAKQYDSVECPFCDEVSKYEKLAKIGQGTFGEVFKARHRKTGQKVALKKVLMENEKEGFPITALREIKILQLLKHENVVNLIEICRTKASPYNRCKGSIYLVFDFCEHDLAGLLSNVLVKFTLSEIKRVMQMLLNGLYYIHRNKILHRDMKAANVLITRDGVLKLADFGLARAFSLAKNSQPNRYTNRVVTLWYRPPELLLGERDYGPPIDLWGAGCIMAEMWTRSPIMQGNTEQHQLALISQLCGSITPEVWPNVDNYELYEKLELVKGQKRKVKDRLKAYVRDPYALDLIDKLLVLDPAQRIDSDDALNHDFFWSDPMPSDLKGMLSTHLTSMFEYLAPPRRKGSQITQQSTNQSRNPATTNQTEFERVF
T3 sequence (O60563 whole entry partner, species assumed): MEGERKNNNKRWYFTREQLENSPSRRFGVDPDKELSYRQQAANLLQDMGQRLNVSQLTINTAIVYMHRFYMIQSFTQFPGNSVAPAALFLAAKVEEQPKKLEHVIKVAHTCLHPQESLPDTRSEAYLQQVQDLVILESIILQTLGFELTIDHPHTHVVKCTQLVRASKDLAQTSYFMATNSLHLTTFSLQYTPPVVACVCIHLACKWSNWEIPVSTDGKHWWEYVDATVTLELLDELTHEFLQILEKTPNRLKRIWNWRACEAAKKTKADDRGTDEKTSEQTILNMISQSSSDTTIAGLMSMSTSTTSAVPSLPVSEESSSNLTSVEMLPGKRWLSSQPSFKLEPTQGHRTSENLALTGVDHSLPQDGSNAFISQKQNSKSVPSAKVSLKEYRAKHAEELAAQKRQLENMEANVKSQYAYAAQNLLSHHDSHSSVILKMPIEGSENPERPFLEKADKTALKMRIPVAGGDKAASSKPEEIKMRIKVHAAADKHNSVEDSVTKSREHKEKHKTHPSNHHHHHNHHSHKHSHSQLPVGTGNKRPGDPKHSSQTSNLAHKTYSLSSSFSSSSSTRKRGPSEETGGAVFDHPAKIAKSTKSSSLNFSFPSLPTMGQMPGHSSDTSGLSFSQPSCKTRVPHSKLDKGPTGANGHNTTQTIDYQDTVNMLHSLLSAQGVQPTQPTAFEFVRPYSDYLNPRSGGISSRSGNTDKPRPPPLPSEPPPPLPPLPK
T6 sequence (P21439 1-1279 isoform P21439-2 L556R): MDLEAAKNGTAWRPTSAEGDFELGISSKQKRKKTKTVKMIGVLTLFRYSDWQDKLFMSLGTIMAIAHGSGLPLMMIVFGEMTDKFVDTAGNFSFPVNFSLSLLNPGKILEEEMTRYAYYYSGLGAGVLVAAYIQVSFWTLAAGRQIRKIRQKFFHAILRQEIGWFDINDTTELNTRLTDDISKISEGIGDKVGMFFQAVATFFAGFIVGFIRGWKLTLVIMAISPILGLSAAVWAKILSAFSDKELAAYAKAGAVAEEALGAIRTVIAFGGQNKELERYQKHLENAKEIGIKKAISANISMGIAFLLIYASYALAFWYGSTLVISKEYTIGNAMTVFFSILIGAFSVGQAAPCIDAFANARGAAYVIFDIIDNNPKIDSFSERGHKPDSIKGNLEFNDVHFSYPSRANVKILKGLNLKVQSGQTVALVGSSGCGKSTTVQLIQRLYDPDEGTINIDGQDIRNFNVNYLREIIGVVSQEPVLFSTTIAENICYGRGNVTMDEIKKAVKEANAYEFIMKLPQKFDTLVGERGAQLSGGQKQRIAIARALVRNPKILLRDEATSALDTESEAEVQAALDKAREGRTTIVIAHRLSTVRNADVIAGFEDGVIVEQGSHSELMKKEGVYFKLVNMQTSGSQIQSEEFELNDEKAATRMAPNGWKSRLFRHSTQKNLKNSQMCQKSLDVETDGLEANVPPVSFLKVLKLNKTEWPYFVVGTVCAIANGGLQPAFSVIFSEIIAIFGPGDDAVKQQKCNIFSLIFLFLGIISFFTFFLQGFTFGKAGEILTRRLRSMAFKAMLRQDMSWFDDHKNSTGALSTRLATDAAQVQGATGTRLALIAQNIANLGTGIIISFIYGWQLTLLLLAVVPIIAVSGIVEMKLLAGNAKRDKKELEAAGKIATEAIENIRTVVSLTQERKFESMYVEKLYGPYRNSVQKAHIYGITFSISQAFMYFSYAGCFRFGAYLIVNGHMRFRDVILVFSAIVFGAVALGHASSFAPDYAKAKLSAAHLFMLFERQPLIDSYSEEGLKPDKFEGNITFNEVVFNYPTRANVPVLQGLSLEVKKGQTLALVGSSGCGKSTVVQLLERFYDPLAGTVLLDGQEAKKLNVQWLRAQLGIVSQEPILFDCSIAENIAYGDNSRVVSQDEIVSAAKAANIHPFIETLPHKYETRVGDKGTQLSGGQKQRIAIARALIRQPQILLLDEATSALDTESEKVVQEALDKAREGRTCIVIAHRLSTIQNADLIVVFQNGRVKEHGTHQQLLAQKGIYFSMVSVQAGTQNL

Row | Compound | IC50 (CDK2/A) | IC50 (CDK5/p25) | IC50 (CDK9/T) | IC50 (CK1) | maturation of ABCB4-I541F (expression of the mature form) (ABCB4-I541F [2]) | further results
1 | CC[C@@H](Nc1nc(NCc2ccc(Cl)c(F)c2)c2ncn(C3CCCC3)c2n1)C(=O)O [MRT2-243] | 3 µM | 6.3 µM | 5 µM | 6.1 µM | significantly increase the expression of a mature form of ABCB4-I541F | IC50 (ABCB4-WT [1]): 17.6 µM; relocalisation of ABCB4-I490T at bile canaliculi (ABCB4-I490T): partially relocalised at bile canaliculi; relocalisation of ABCB4-L556R at bile canaliculi (ABCB4-L556R): partially relocalised at bile canaliculi; PC secretion activity of ABCB4-I541F (% of ABCB4-WT activity) (ABCB4-I541F [3]): 22.5 ± 6.2%
2 | CC[C@@H](Nc1nc(NCc2ccccc2)c2ncn(C(C)C)c2n1)C(=O)O [M3, reference compound] |  |  | > 33 µM | > 33 µM |  | 
3 | CC[C@H](CO)Nc1nc(NCc2ccccc2)c2ncn(C(C)C)c2n1 [Roscovitine, (R)-roscovitine] |  |  |  |  |  | viability at 72 h, 25 µM [4]: < 60%; cell viability after treatment at 100 µM (HEK cells; 100 µM, HEK cells expressing ABCB4-WT): massive cell death; cytotoxicity (HEK cells; increasing concentrations, HEK cells): important dose-dependent cytotoxicity
4 | CC[C@@H](Nc1nc(NCc2cccc(C(F)(F)F)c2)c2ncn(C(C)C)c2n1)C(=O)O [MRT2-249] | 9 µM | 27 µM | > 33 µM | 5 µM | significantly increase the expression of a mature form of ABCB4-I541F | 
5 | Cyclosporin A [CsA] |  |  |  |  |  | effect on the PC secretion activity of ABCB4 (ABCB4-WT [5]): inhibits the PC secretion activity of ABCB4; rescue of maturation and canalicular localisation of ABCB4-I541F (ABCB4-I541F [6]): partially rescued
6 | CC(Nc1nc(NCc2ccccc2)c2ncn(C(C)C)c2n1)C(=O)O (stereo not drawn) [MRT2-163] |  |  |  | 20 µM |  | 
7 | CC[C@@H](Nc1nc(NCc2cccc(Cl)c2)c2ncn(C3CCCC3)c2n1)C(=O)O [MRT2-237] | 3.4 µM | 7.7 µM | 9 µM | 3.33 µM | significantly increase the expression of a mature form of ABCB4-I541F | IC50 (ABCB4-WT [1]): 29.3 µM; relocalisation of ABCB4-I490T at bile canaliculi (ABCB4-I490T): partially relocalised at bile canaliculi; relocalisation of ABCB4-L556R at bile canaliculi (ABCB4-L556R): partially relocalised at bile canaliculi; PC secretion activity of ABCB4-I541F (% of ABCB4-WT activity) (ABCB4-I541F [3]): 13.0 ± 3.5%
8 | CC[C@@H](Nc1nc(NCc2cccc(C(F)(F)F)c2)c2ncn(C3CCCC3)c2n1)C(=O)O [MRT2-239] | 8 µM | 11 µM | 20 µM | 4 µM | significantly increase the expression of a mature form of ABCB4-I541F | 
9 | CC(C)n1cnc2c(NCc3ccccc3)nc(N[C@@H](CO)C(=O)O)nc21 [MRT2-164] |  |  | 17 µM | 28 µM |  | 
10 | CC[C@@H](Nc1nc(NCc2ccc(F)c(F)c2)c2ncn(C3CCCC3)c2n1)C(=O)O [MRT2-241] | 5.1 µM | 17 µM | 8 µM | 11 µM | significantly increase the expression of a mature form of ABCB4-I541F | 
11 | CC[C@@H](Nc1nc(NCc2ccccc2)c2ncn(C3CCCC3)c2n1)C(=O)O [MRT2-245] | 6.3 µM | 15 µM | 28 µM | 17 µM | significantly increase the expression of a mature form of ABCB4-I541F | 
12 | CC[C@@H](Nc1nc(NCc2cccc(F)c2)c2ncn(C3CCCC3)c2n1)C(=O)O [MRT2-235] | 5.9 µM | 8.3 µM | 7 µM | 7 µM | significantly increase the expression of a mature form of ABCB4-I541F | IC50 (ABCB4-WT [1]): 21 µM; relocalisation of ABCB4-I490T at bile canaliculi (ABCB4-I490T): partially relocalised at bile canaliculi; relocalisation of ABCB4-L556R at bile canaliculi (ABCB4-L556R): partially relocalised at bile canaliculi; PC secretion activity of ABCB4-I541F (% of ABCB4-WT activity) (ABCB4-I541F [3]): 19.0 ± 3.4%

Source: PMC6491434 (Scientific Reports, 2019)
